Source: patent US20260355212A1 (priority 2022, published 2026)
Read-outs that look alike come from different tables or passages of the source.

Assays:
HCoV-229E Mpro = HCoV-229E Mpro (Human coronavirus 229E, UniProt P0C6X1); experiment: HCoV-229E Mpro enzymatic inhibition assay (fluorescence); format: biochemical
Method: (§1) The hCoV Mpro are cloned, expressed in E. coli and purified by WuXi AppTec Co., Ltd. The substrate are synthesized by Genscript Biotech.
(§2) Compounds are 3 fold serially diluted for 10 doses and added to an assay plate (384w format) using ECHO, in duplicate wells. The test concentration of test compounds is defined by sponsor. […] For no inhibition control (ZPE, zero percent effect), DMSO is added.
(§3) 25 μL of Mpro proteins are added to the assay plates containing compounds, respectively, using Multidrop. The compounds and Mpro proteins are pre-incubated at room temperature for 30 min. Then 5 µL of Mpro substrates are added to the related assay plates, respectively. Each activity testing point has a relevant background control to normalize the fluorescence interference of compound.
(§4) After 60 min incubation at 30° C., the fluorescence signal (RFU) is detected using a microplate reader M2e (SpectraMax) at Ex/Em=340 nm/490 nm.
(§5) The inhibition activity is calculated using the formula below, IC50 values will be calculated using the Inhibition % data.
(§6) Inhibition %=[(CPD−BGCPD)−(ZPE−BGZPE)/(HPE−BGHPE)−(ZPE−BGZPE)]×[…] • CPD: Signal of test compounds wells, containing compound+enzyme+substrate. • ZPE: Average of signals of zero percent effective control wells, containing enzyme+substrate, no compound. • HPE: Average of signals of hundred percent effect control wells, containing GC376+enzyme+substrate. • BG: Compound background control wells, containing compound+substrate, no enzyme
(§7) IC50 values of compounds are calculated with the GraphPad Prism software using the nonlinear regression model of log(inhibitor) vs. response—Variable slope (four parameters).

HCoV-HKU1 Mpro = HCoV-HKU1 Mpro (Human coronavirus HKU1, UniProt P0C6X2); experiment: HCoV-HKU1 Mpro enzymatic inhibition assay (fluorescence); format: biochemical
Method: as §1, §2, §3, §4, §5, §6, §7

SARS-CoV-2 Mpro = SARS-CoV-2 Mpro (Severe acute respiratory syndrome coronavirus 2, UniProt P0DTD1); experiment: SARS-CoV-2 Mpro enzymatic inhibition assay (fluorescence); format: biochemical
Method: as §1
Compounds are 3 fold serially diluted for 10 doses and added to an assay plate (384w format) using ECHO, in duplicate wells. The test concentration of test compounds is defined by sponsor.
25 μL of Mpro proteins are added to the assay plates containing compounds, respectively, using Multidrop. The compounds and Mpro proteins are pre-incubated at room temperature for 30 min. Then 5 µL of Mpro substrates are added to the related assay plates, respectively.
as §4, §5, §7

MERS Mpro = MERS Mpro (Middle East respiratory syndrome-related coronavirus, UniProt K9N7C7); experiment: biochemical; parameters: species or system MERS-CoV
HCoV-OC43 Mpro = HCoV-OC43 Mpro (Human coronavirus OC43, UniProt P0C6X6); experiment: HCoV-OC43 Mpro enzymatic inhibition assay (fluorescence); format: biochemical
Method: as §1, §2, §3, §4, §5, §6, §7

HCoV-NL63 Mpro = HCoV-NL63 Mpro (Human coronavirus NL63, UniProt P0C6X5); experiment: HCoV-NL63 Mpro enzymatic inhibition assay (fluorescence); format: biochemical
Method: as §1, §2, §3, §4, §5, §6, §7

SARS-CoV-1 Mpro = SARS-CoV-1 Mpro (Severe acute respiratory syndrome coronavirus, UniProt P0C6X7); experiment: biochemical
[1] = mean, 25 nM protein, 25 μM substrate, 30 min pre-incubation, 60 min at 30° C., read-out: Mpro_SARS-CoV-2 mean IC50

Sequence of HCoV-OC43 Mpro (P0C6X6 3247-3549 limits assumed): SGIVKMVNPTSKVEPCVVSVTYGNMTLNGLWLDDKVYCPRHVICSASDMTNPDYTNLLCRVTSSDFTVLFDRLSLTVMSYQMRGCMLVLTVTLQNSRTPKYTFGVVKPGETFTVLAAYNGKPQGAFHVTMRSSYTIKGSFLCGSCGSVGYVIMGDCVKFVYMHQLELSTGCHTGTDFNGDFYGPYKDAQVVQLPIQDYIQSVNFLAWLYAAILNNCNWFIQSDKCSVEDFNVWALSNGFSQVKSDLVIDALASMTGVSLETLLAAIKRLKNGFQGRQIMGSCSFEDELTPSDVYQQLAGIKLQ
Sequence of HCoV-HKU1 Mpro (P0C6X2 3335-3637 limits assumed): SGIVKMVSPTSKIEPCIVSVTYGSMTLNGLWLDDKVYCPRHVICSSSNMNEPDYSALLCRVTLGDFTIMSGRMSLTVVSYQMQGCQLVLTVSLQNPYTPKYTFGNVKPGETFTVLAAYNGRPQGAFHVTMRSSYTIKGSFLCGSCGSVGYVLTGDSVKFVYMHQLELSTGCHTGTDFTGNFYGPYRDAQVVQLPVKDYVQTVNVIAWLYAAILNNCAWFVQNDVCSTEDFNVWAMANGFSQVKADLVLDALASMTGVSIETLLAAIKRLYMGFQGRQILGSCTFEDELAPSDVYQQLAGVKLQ
Sequence of MERS Mpro (K9N7C7 3248-3553 limits assumed): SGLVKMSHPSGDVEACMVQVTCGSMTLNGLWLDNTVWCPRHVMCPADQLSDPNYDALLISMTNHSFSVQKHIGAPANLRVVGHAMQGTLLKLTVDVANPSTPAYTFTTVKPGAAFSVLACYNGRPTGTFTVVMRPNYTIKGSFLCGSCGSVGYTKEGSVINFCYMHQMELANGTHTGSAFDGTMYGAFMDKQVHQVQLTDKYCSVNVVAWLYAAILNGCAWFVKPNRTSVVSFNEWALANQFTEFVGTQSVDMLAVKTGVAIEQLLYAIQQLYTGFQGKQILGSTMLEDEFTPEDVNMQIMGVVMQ
Sequence of HCoV-229E Mpro (P0C6X1 2966-3267 limits assumed): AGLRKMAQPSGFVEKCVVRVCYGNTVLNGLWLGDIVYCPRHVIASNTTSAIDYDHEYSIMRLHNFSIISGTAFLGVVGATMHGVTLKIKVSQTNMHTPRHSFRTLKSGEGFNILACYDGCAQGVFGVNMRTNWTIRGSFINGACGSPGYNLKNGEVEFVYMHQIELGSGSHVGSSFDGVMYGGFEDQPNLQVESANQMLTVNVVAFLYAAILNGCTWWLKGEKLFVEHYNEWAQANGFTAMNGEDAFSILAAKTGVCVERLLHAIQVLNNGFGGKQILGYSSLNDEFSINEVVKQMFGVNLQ
Sequence of HCoV-NL63 Mpro (P0C6X5 2940-3242 limits assumed): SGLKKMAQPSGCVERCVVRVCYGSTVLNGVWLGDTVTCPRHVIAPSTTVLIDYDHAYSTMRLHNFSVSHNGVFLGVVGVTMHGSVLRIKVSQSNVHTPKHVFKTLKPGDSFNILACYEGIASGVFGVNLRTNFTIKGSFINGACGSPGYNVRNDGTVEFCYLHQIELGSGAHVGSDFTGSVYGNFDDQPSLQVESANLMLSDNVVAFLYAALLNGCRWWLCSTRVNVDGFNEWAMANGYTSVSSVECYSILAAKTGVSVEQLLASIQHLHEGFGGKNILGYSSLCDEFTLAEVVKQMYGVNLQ

Compound | IC50 (HCoV-229E Mpro) [nM] | IC50 (HCoV-HKU1 Mpro) [nM] | IC50 (SARS-CoV-2 Mpro) [nM] | IC50 (MERS Mpro) [nM] | IC50 (HCoV-OC43 Mpro) [nM] | IC50 (HCoV-NL63 Mpro) [nM] | IC50 (SARS-CoV-1 Mpro) [nM] | IC50 (HCoV-229E Mpro; mean, 50 nM protein, 12.5 μM substrate, 30 min pre-incubation, 60 min at 30° C., read-out: Mpro_229E mean IC50) [nM] | IC50 (HCoV-HKU1 Mpro; mean, 12.5 nM protein, 12.5 μM substrate, 30 min pre-incubation, 60 min at 30° C., read-out: Mpro_HKU1 mean IC50) [nM] | IC50 (SARS-CoV-2 Mpro; [1]) [nM] | IC50 (HCoV-OC43 Mpro; mean, 25 nM protein, 12.5 μM substrate, 30 min pre-incubation, 60 min at 30° C., read-out: Mpro_OC43 mean IC50) [nM] | IC50 (HCoV-NL63 Mpro; mean, 50 nM protein, 12.5 μM substrate, 30 min pre-incubation, 60 min at 30° C., read-out: Mpro_NL63 mean IC50) [nM]
Cn1c(C(=O)N2C[C@H]3[C@@H]([C@H]2C(=O)N[C@H](C=O)C[C@@H]2CCNC2=O)C3(C)C)cc2cc(Cl)ccc21 [Compound 90, (1R,2S,5S)-3-(5-Chloro-1-methyl-1H-indole-2-carbonyl)-6,6-dimethyl-N—((S)-1-oxo-3-((S)-2-oxopyrrolidin-3-yl)propan-2-yl)-3-azabicyclo[3.1.0]hexane-2-carboxamide] | 60.5 | 48 | 43.6 | 655 | 130 | 202 | 79.4 |  |  |  |  | 
Cc1cccc([C@@H](C)C(=O)N2C[C@H]3[C@@H]([C@H]2C(=O)N[C@H](C#N)C[C@@H]2CCNC2=O)C3(C)C)c1 [Compound 120] |  |  |  | 1130 |  |  | 196 | 299 | 193 | 151 | 567 | 1400
CC1(C)[C@@H]2[C@@H](C(=O)N[C@H](C#N)C[C@@H]3CCNC3=O)N(C(=O)C3(c4cccc(Cl)c4)CC3)C[C@@H]21 [Compound 123, (1R,2S,5S)-3-(1-(3-Chlorophenyl)cyclopropanecarbonyl)-N—((S)-1-cyano-2-((S)-2-oxopyrrolidin-3-yl)ethyl)-6,6-dimethyl-3-azabicyclo[3.1.0]hexane-2-carboxamide] | 459 | 185 |  | 1180 | 419 | 2110 | 224 |  |  | 178 |  | 
Cc1cc(Cl)cc2cc(C(=O)N3C[C@H]4[C@@H]([C@H]3C(=O)N[C@H](C=O)C[C@@H]3CCNC3=O)C4(C)C)[nH]c12 [Compound 69, (1R,2S,5S)-3-(5-Chloro-7-methyl-1H-indole-2-carbonyl)-6,6-dimethyl-N—((S)-1-oxo-3-((S)-2-oxopyrrolidin-3-yl)propan-2-yl)-3-azabicyclo[3.1.0]hexane-2-carboxamide] | 50.5 | 32.6 | 29.2 | 476 | 79.8 | 80.7 | 48.8 |  |  |  |  | 
O=C[C@H](C[C@@H]1CCNC1=O)NC(=O)[C@@H]1[C@H]2CCC[C@H]2CN1C(=O)c1cc2ccccc2[nH]1 [Compound 26, (1S,3aR,6aS)-2-(1H-indole-2-carbonyl)-N—((S)-1-oxo-3-((S)-2-oxopyrrolidin-3-yl)propan-2-yl)octahydrocyclopenta[c]pyrrole-1-carboxamide] | 42.7 | 20.7 | 16.8 | 173 | 28.6 | 37.8 | 93.7 |  |  |  |  | 
Cc1ccc2cc(C(=O)N3C[C@H]4[C@@H]([C@H]3C(=O)N[C@H](C=O)C[C@@H]3CCNC3=O)C4(C)C)[nH]c2c1C [Compound 18, (1R,2S,5S)-3-(6,7-dimethyl-1H-indole-2-carbonyl)-6,6-dimethyl-N—((S)-1-oxo-3-((S)-2-oxopyrrolidin-3-yl)propan-2-yl)-3-azabicyclo[3.1.0]hexane-2-carboxamide] | 38.8 | 33.1 | 15.3 | 301 | 65.9 | 76.1 | 33.6 |  |  |  |  | 
CC1(C)[C@@H]2[C@@H](C(=O)N[C@H](C=O)C[C@@H]3CCNC3=O)N(C(=O)C3(c4cccc(Cl)c4)CC3)C[C@@H]21 [Compound 8, (1R,2S,5S)-3-(1-(3-chlorophenyl)cyclopropanecarbonyl)-6,6-dimethyl-N—((S)-1-oxo-3-((S)-2-oxopyrrolidin-3-yl)propan-2-yl)-3-azabicyclo[3.1.0]hexane-2-carboxamide] | 21.8 | 7.74 | 11.3 | 88.7 | 18.9 | 37.6 | 11.9 |  |  |  |  | 
C=C1C[C@@H](C(=O)N[C@H](C=O)C[C@@H]2CCNC2=O)N(C(=O)c2cc3ccccc3[nH]2)C1 [Compound 108, (S)-1-(1H-Indole-2-carbonyl)-4-methylene-N—((S)-1-oxo-3-((S)-2-oxopyrrolidin-3-yl)propan-2-yl)pyrrolidine-2-carboxamide] | 48 | 29 | 78.5 | 291 | 193 | 38 | 159 |  |  |  |  | 
O=C[C@H](C[C@@H]1CCNC1=O)NC(=O)[C@@H]1CC(F)(F)CN1C(=O)c1cc2ccccc2[nH]1 [Compound 115, (S)-4,4-difluoro-1-(1H-Indole-2-carbonyl)-N—((S)-1-oxo-3-((S)-2-oxopyrrolidin-3-yl)propan-2-yl)pyrrolidine-2-carboxamide] | 53 | 15 | 102 | 303 | 87 | 105 | 250 |  |  |  |  | 
N#C[C@@H]1C[C@@H](C(=O)N[C@H](C=O)C[C@@H]2CCNC2=O)N(C(=O)c2cc3ccccc3[nH]2)C1 [Compound 112, (2S,4R)-4-Cyano-1-(1H-indole-2-carbonyl)-N—((S)-1-oxo-3-((S)-2-oxopyrrolidin-3-yl)propan-2-yl)pyrrolidine-2-carboxamide] | 149 | 120 | 84.6 | 2760 | 390 | 503 | 244 |  |  |  |  | 
Cc1ccc2[nH]c(C(=O)N3C[C@H]4[C@@H]([C@H]3C(=O)N[C@H](C=O)C[C@@H]3CCNC3=O)C4(C)C)cc2c1 [Compound 93, (1R,2S,5S)-6,6-Dimethyl-3-(5-methyl-1H-indole-2-carbonyl)-N—((S)-1-oxo-3-((S)-2-oxopyrrolidin-3-yl)propan-2-yl)-3-azabicyclo[3.1.0]hexane-2-carboxamide] | 32.9 | 24 | 45.1 | 317 | 55.1 | 53.2 | 73.2 |  |  |  |  | 
CC(C)c1ccc(F)c2[nH]c(C(=O)N3C[C@H]4[C@@H]([C@H]3C(=O)N[C@H](C#N)C[C@@H]3CCNC3=O)C4(C)C)cc12 [Compound 131, (1R,2S,5S)—N—((S)-1-Cyano-2-((S)-2-oxopyrrolidin-3-yl)ethyl)-3-(7-fluoro-4-isopropyl-1H-indole-2-carbonyl)-6,6-dimethyl-3-azabicyclo[3.1.0]hexane-2-carboxamide] | 690 | 1140 | 401 | 9760 | 1540 | 1590 | 772 |  |  |  |  | 
CC1CC(C(=O)N2C[C@H]3[C@@H]([C@H]2C(=O)N[C@H](C=O)C[C@@H]2CCNC2=O)C3(C)C)C1 (stereo partly drawn) [Compound 110, (1R,2S,5S)-6,6-Dimethyl-3-(3-methylcyclobutanecarbonyl)-N—((S)-1-oxo-3-((S)-2-oxopyrrolidin-3-yl)propan-2-yl)-3-azabicyclo[3.1.0]hexane-2-carboxamide] | 105 | 230 |  | 1160 | 318 | 1590 | 205 |  |  | 82.2 |  | 
CCOc1ccc2[nH]c(C(=O)N3C[C@H]4[C@@H]([C@H]3C(=O)N[C@H](C=O)C[C@@H]3CCNC3=O)C4(C)C)cc2c1 [Compound 111, (1R,2S,5S)-3-(5-Ethoxy-1H-indole-2-carbonyl)-6,6-dimethyl-N—((S)-1-oxo-3-((S)-2-oxopyrrolidin-3-yl)propan-2-yl)-3-azabicyclo[3.1.0]hexane-2-carboxamide] | 83.3 | 73.3 | 84.1 | 866 | 169 | 135 | 119 |  |  |  |  | 
